# Measurements from ChEMBL document CHEMBL4414606, “Bioactive Streptoglutarimides A-J from the Marine-Derived Streptomyces sp. ZZ741” (J Nat Prod, 2019).
# pIC50: −log10 of the molar value.
# Tests used:
# Staphylococcus aureus = experiment: Antibacterial activity against methicillin resistant Staphylococcus aureus assessed as reduction in bacterial growth incubated for 12 hrs by microdilution method; format: functional
# Candida albicans = experiment: Antifungal activity against Candida albicans assessed as reduction in fungal growth incubated for 12 hrs by microdilution method; format: functional
# Escherichia coli = experiment: Antibacterial activity against Escherichia coli assessed as reduction in bacterial growth incubated for 12 hrs by microdilution method; format: functional
# U-251 = experiment: Antiproliferative activity against human U251 cells assessed as reduction in cell viability after 72 hrs by SRB assay; format: functional, cell-based; conditions: for IC50: u-251; for pIC50: Homo sapiens, U-251, 72 h, read-out: IC50
# U-87 MG = experiment: Antiproliferative activity against human U87MG cells assessed as reduction in cell viability after 72 hrs by SRB assay; format: functional, cell-based, U-87MG ATCC; conditions: for IC50: u-87mg atcc; for pIC50: Homo sapiens, U-87 MG, 72 h, read-out: IC50
Compound,MIC (Staphylococcus aureus),MIC (Candida albicans),MIC (Escherichia coli),IC50 (U-251),IC50 (U-87 MG),pIC50 (U-251),pIC50 (U-87 MG)
CC1=C[C@@](C)(CO)O/C1=C\C(=O)CC1CC(=O)NC(=O)C1,10 µg/mL,15 µg/mL,8 µg/mL,Not Active,Not Active,,
C[C@H]1C[C@H]([C@H](O)CC2CC(=O)NC(=O)C2)C(=O)[C@@](C)(O)C1,11 µg/mL,12 µg/mL,9 µg/mL,Not Active,Not Active,,
COc1cccc2c1C(=O)c1c(O)c3c(c(O)c1C2=O)C[C@@](O)(C(=O)CO)C[C@@H]3O[C@H]1C[C@H](N)[C@H](O)[C@H](C)O1 [DOXORUBICIN],,,,,,5.17,5.80
CN[C@H](CC(C)C)C(=O)N[C@H]1C(=O)N[C@@H](CC(N)=O)C(=O)N[C@H]2C(=O)N[C@H]3C(=O)N[C@H](C(=O)N[C@H](C(=O)O)c4cc(O)cc(O)c4-c4cc3ccc4O)[C@H](O)c3ccc(c(Cl)c3)Oc3cc2cc(c3O[C@@H]2O[C@H](CO)[C@@H](O)[C@H](O)[C@H]2O[C@H]2C[C@](C)(N)[C@H](O)[C@H](C)O2)Oc2ccc(cc2Cl)[C@H]1O [VANCOMYCIN],0.2 µg/mL,,,,,,
C[C@H]1C[C@@](C)(O)C[C@@H]([C@H](O)CC2CC(=O)NC(=O)C2)C1=O,10 µg/mL,18 µg/mL,10 µg/mL,,,7.30,6.66
C[C@H](CO)C[C@@]1(C)OC(CC2(O)CC(=O)NC(=O)C2)=CC1=O,9 µg/mL,20 µg/mL,10 µg/mL,Not Active,Not Active,,
C[C@H](CO)[C@@H]1OC(CC2CC(=O)NC(=O)C2)=CC(=O)[C@H]1C,10 µg/mL,18 µg/mL,12 µg/mL,Not Active,Not Active,,
C[C@@H]1C[C@](C)(CO)O/C1=C\C(=O)CC1CC(=O)NC(=O)C1,9 µg/mL,16 µg/mL,9 µg/mL,Not Active,Not Active,,
C[C@@H]1C/C(=C/CC2CC(=O)NC(=O)C2)C(=O)[C@@H](C)[C@@H]1O,10 µg/mL,18 µg/mL,10 µg/mL,Not Active,Not Active,,
C[C@@H]1C[C@@H]([C@H](O)CC2CC(=O)NC(=O)C2)C(=O)[C@@H](C)[C@@H]1O,9 µg/mL,15 µg/mL,10 µg/mL,,,5.82,5.42
C[C@@H]1C[C@@](C)(CO)O/C1=C\C(=O)CC1CC(=O)NC(=O)C1,11 µg/mL,20 µg/mL,9 µg/mL,Not Active,Not Active,,
C[C@](O)(CO)C[C@@]1(C)OC(CC2CC(=O)NC(=O)C2)=CC1=O,10 µg/mL,18 µg/mL,12 µg/mL,Not Active,Not Active,,
GENTAMICIN,,,1.25 µg/mL,,,,
C[C@@H]1[C@H](O)[C@@H](C)/C=C/C=C/C=C/C=C/C=C/C=C/C=C/[C@H](O[C@@H]2O[C@H](C)[C@@H](O)[C@H](N)[C@@H]2O)C[C@@H]2O[C@](O)(C[C@@H](O)C[C@@H](O)[C@H](O)CC[C@@H](O)C[C@@H](O)CC(=O)O[C@H]1C)C[C@H](O)[C@H]2C(=O)O [AMPHOTERICIN B],,0.75 µg/mL,,,,,
C[C@H](CO)C[C@@]1(C)OC(CC2CC(=O)NC(=O)C2)=CC1=O,10 µg/mL,8 µg/mL,8 µg/mL,Not Active,Not Active,,
